Key:
Caco-2 cells [1] = experiment: ESR spectroscopy of cellular radical formation (DMPO spin trap); type: cell-based, human
Caco-2 cells [2] = experiment: 8-oxodG analysis (oxidative DNA damage, HPLC-ECD); type: cell-based, human
Protocol: The Caco-2 human colorectal adenocarcinoma cell line (American Type Culture Collection, Manassas, Va., USA) was grown in Dulbecco's Modified Eagle's Medium supplemented with 10% fetal bovine serum, 1% non-essential amino acids, 1% sodium pyruvate and 1% penicillin/streptomycin, at 37° C., and 5% CO2. Cells were grown until 80% confluency before medium was replaced by DMEM without supplements containing 100 μM menadione or 20 μM H202. For microarray analyses, time-matched control cells were treated in an identical manner without addition of the oxidants. Samples were taken after 0.08, 0.25, 0.5, 1, 2, 4, 8, 16, or 24 hours. […] At the indicated time points, cells were fixed in 2 ml ice cold methanol for flow cytometry or medium was replaced by 1 ml Trizol for RNA/DNA isolation. […] Briefly, after extraction, DNA was digested into deoxyribonucleosides by treatment with nuclease P1 [0.02 U/μl] and alkaline phosphatase [0.014 U/μl]. The digest was then injected into a HPLC-ECD-system. […] UV-absorption of dG was simultaneously monitored at 260 nm. Data are presented as means ±SD.

Caco-2 cells [3] = experiment: Flow cytometric analysis of cell cycle distribution; type: cell-based, human; conditions: for percentage of cells in the S phase: 20 uM H2O2 or 100 uM menadione
Protocol: (§1) The Caco-2 human colorectal adenocarcinoma cell line (American Type Culture Collection, Manassas, Va., USA) was grown in Dulbecco's Modified Eagle's Medium supplemented with 10% fetal bovine serum, 1% non-essential amino acids, 1% sodium pyruvate and 1% penicillin/streptomycin, at 37° C., and 5% CO2. Cells were grown until 80% confluency before medium was replaced by DMEM without supplements containing 100 μM menadione or 20 μM H202. For microarray analyses, time-matched control cells were treated in an identical manner without addition of the oxidants. Samples were taken after 0.08, 0.25, 0.5, 1, 2, 4, 8, 16, or 24 hours. […] At the indicated time points, cells were fixed in 2 ml ice cold methanol for flow cytometry or medium was replaced by 1 ml Trizol for RNA/DNA isolation. Analyses of cell cycle profiles and apoptosis was performed as previously described. Cells were stained with propidium iodide; apoptotic cells were visualised by means of the primary antibody M30 CytoDeath (Roche, Penzberg, Germany) and FITC conjugated anti-mouse Ig as secondary antibody (DakoCytomation, Glostrup, Denmark). Data analysis was done using CellQuest software (version 3.1, Becton Dickinson, San Jose, USA). […] Cell cycle profiles were analyzed using ModFit LT for Mac (version 2.0). Data are presented as means ±SD.

Caco-2 cells [4] = experiment: Microarray gene expression, differentially expressed genes; type: cell-based, human; conditions: for number of differentially expressed genes: 20 uM H2O2 or 100 uM menadione, all time points up to 24 hours
Protocol: The Caco-2 human colorectal adenocarcinoma cell line (American Type Culture Collection, Manassas, Va., USA) was grown in Dulbecco's Modified Eagle's Medium supplemented with 10% fetal bovine serum, 1% non-essential amino acids, 1% sodium pyruvate and 1% penicillin/streptomycin, at 37° C., and 5% CO2. Cells were grown until 80% confluency before medium was replaced by DMEM without supplements containing 100 μM menadione or 20 μM H202. For microarray analyses, time-matched control cells were treated in an identical manner without addition of the oxidants. […] At the indicated time points, cells were fixed in 2 ml ice cold methanol for flow cytometry or medium was replaced by 1 ml Trizol for RNA/DNA isolation. Labelling and hybridisation of RNA samples were done according to Agilent's manual for microarrays with minor modifications ((Agilent Technologies, Breda, The Netherlands). RNA (0.5 μg) was transcribed into cDNA and labelled with Cyanine 3 (Cy3) or Cyanine 5 (Cy5). When dye-incorporation was above 7 pmol/μg RNA, 2 μg cRNA of the treated and time-matched control samples was applied on […] 22K and […] 4×44K Agilent Human Oligo Microarray. Slides were scanned on a GenePix 4000B (Molecular Devices, Sunnyvale, USA) with fixed laser power (100%) and PMT gain. For each exposure, two biological repeats per time point were performed. Also swapped Cy3 and Cy5 dye labelling was done, resulting in 72 hybridisations. Images were processed with ImaGene 6.0 software (BioDiscovery Inc., Los Angeles, USA) to quantify spot signals. Irregular spots were flagged. Data from ImaGene were transported into GeneSight software version 4.1.6 (BioDiscovery Inc., Los Angeles, USA). For each spot background was subtracted and flagged spots as well as spots with a net expression level below 20 in both channels were omitted. Data were log base 2 transformed and LOWESS normalization was applied. Expression difference with the time-matched control was calculated and if more than one probe of a gene was present on the array, the replicates were combined while omitting outliers (>2 standard deviations). Only the probe sets present at both types of array platforms were selected. […] The webtool GenePattern (http://genepattern.broad.mit.edu/gp/pages/index.jsf) was used for clustering and visualization of heat maps and cluster patterns.

Caco-2 cells [5] = experiment: MetaCore pathway analysis of differentially expressed genes; type: cell-based, human; conditions: for Number of pathways: significant pathways p<0.01, 20 uM H2O2 or 100 uM menadione
From the text: The p-Values were all calculated using the basic formula for hypergeometric distribution. The p-Value essentially represents the probability for a particular mapping of an experiment to a pathway to arise by chance, considering the numbers of genes in experiment versus the number of genes in the pathway within the “full set” of all genes in the pathway.

Caco-2 cells [6] = experiment: STEM time series analysis of gene expression; type: cell-based, human; conditions: for genes whose time-dependent expression correlates with 8-oxodG levels / genes significantly assigned to clusters of gene expression curves / number of different clusters of gene expression curves: STEM; for genes whose time-dependent expression correlates with 8-oxodG levels: log ratio transformed 8-oxodG levels; for genes significantly assigned to clusters of gene expression curves / number of different clusters of gene expression curves: 20 uM H2O2 or 100 uM menadione
From the text: For identification of genes co-regulated time-dependently and clustering with the phenotypic parameters, the software tool “Short Time-series Expression Miner” (STEM, version 1.1.2b; http://www.cs.cmu.edu/˜jernst/stem/) was used. […] Profiles are clustered by correlation analyses.

Caco-2 cells [7] = conditions: 75 μM H2O2, 30 minutes incubation time; cited from earlier work
[8] = tested on: steroid 5-alpha reductase; conditions: inhibition of steroid 5-alpha reductase; cited from earlier work
Caco-2 cells [9] = experiment: Flow cytometric analysis of apoptosis (M30 CytoDeath); type: cell-based, human; conditions: 20 uM H2O2 or 100 uM menadione
Protocol: as §1

rat hepatocytes = conditions: up to 2 hours after incubation; cited from earlier work

SMILES | percentage of cells in the S phase (Caco-2 cells [3]; 24 h) | number of differentially expressed genes (Caco-2 cells [4]) | Number of pathways (Caco-2 cells [5]; time 0.08 hrs) | Number of pathways (Caco-2 cells [5]; time 0.25 hrs) | Number of pathways (Caco-2 cells [5]; time 0.5 hrs) | Number of pathways (Caco-2 cells [5]; time 1 hrs) | Number of pathways (Caco-2 cells [5]; time 2 hrs) | Number of pathways (Caco-2 cells [5]; time 4 hrs) | Number of pathways (Caco-2 cells [5]; time 8 hrs) | Number of pathways (Caco-2 cells [5]; time 16 hrs) | Number of pathways (Caco-2 cells [5]; time 24 hrs) | genes whose time-dependent expression correlates with 8-oxodG levels (Caco-2 cells [6]) | genes significantly assigned to clusters of gene expression curves (Caco-2 cells [6]) | number of different clusters of gene expression curves (Caco-2 cells [6]) | genes clustered by STEM with cell cycle phase (Caco-2 cells [6]; cell cycle phase G1) | significant pathways of genes clustered with cell cycle phase (Caco-2 cells [6]; cell cycle phase G1, p<0.01) | genes clustered by STEM with cell cycle phase (Caco-2 cells [6]; cell cycle phase G2/M) | significant pathways of genes clustered with cell cycle phase (Caco-2 cells [6]; cell cycle phase G2/M, p<0.01) | genes clustered by STEM with cell cycle phase (Caco-2 cells [6]; cell cycle phase S) | significant pathways of genes clustered with cell cycle phase (Caco-2 cells [6]; cell cycle phase S, p<0.01) | further results
OO [H2O2, hydrogen peroxide] | significantly decreased | 1404 genes | 8 | 15 | 17 | 6 | 4 | 5 | 8 | 5 | 6 | 8 genes | 998 genes | 6 clusters | 29 | 0 | 45 | 1 | 1 | 0 | cellular HO. formation (DMPO.-OH) (Caco-2 cells [1]; increasing concentrations of H2O2): dose-dependent formation of DMPO.-OH; 8-oxodG level at 16 hours after exposure (Caco-2 cells [2]; 20 uM H2O2, 16 hours): significantly elevated; time of significantly increased peak in 8-oxodG (Caco-2 cells [2]; 20 uM H2O2, compared to control cells): 15 min; number of cells in G1 phase (Caco-2 cells [3]; 16 h after exposure, compared to control cells): significantly decreased; percentage of cells in the G1/M phase (Caco-2 cells [3]; 24 h, 20 uM H2O2): significantly increased; recovery of the gene expression response (Caco-2 cells [4]; pulse-like response towards H2O2): ≤ 1 h; induction of the WNT signalling pathway (Caco-2 cells [5]; H2O2 exposure): immediately; Number of pathways of the gene expression cluster profile (Caco-2 cells [6]; H2O2, STEM cluster 0, p<0.01): 4; Number of pathways of the gene expression cluster profile (Caco-2 cells [6]; H2O2, STEM cluster 1, p<0.01): 1; Number of pathways of the gene expression cluster profile (Caco-2 cells [6]; H2O2, STEM cluster 2, p<0.01): 9; Number of pathways of the gene expression cluster profile (Caco-2 cells [6]; H2O2, STEM cluster 3, p<0.01): 1; Number of pathways of the gene expression cluster profile (Caco-2 cells [6]; H2O2, STEM cluster 4, p<0.01): 3; Number of pathways of the gene expression cluster profile (Caco-2 cells [6]; H2O2, STEM cluster 5, p<0.01): 4; affected genes selected out of 12931 genes (Caco-2 cells [7]): 87 genes
CC(C)(C)NC(=O)[C@H]1CC[C@H]2[C@@H]3CC[C@H]4NC(=O)C=C[C@]4(C)[C@H]3CC[C@]12C [finasteride] | – | – | – | – | – | – | – | – | – | – | – | – | – | – | – | – | – | – | – | – | effect on cellular H2O2 production [8]: enhancement of cellular H2O2 production
CC1=CC(=O)c2ccccc2C1=O [menadione] | significant increase | 979 genes | 18 | 16 | 14 | 15 | 8 | 10 | 14 | 19 | 18 | 3 genes | 680 genes | 4 clusters | 311 | 15 | 1 | 0 | 74 | 4 | O2.-derived DMPO.-OH signal (Caco-2 cells [1]; 100 uM, 45 minutes incubation time): showed an O2.-derived DMPO.-OH signal; induction of apoptosis (Caco-2 cells [9]): absence of apoptosis; time of highest significantly increased level of 8-oxodG (Caco-2 cells [2]; 100 uM menadione): 2 h; 8-oxodG level at 15 minutes (Caco-2 cells [2]; 100 uM menadione, 15 minutes, much lower than H2O2 at 15 minutes): significant increased level; cells of the G1 phase (Caco-2 cells [3]; 24 h, 100 uM menadione): significant decrease; recovery of the gene expression response (Caco-2 cells [4]; up to 24 hours): no recovery; time after which the WNT signalling pathway is induced (Caco-2 cells [5]; menadione exposure): 1 h; number of pathways significantly induced exclusively by the oxidant (Caco-2 cells [5]; p < 0.01): 24; Number of pathways of the gene expression cluster profile (Caco-2 cells [6]; menadione, STEM cluster 0, p<0.01): 12; Number of pathways of the gene expression cluster profile (Caco-2 cells [6]; menadione, STEM cluster 1, p<0.01): 18; Number of pathways of the gene expression cluster profile (Caco-2 cells [6]; menadione, STEM cluster 2, p<0.01): 4; Number of pathways of the gene expression cluster profile (Caco-2 cells [6]; menadione, STEM cluster 3, p<0.01): 8; 8-oxodG formation (rat hepatocytes): absence of 8-oxodG formation
